# Peptide text beside a SMILES is read from it.
# Experiments:
# Format in all cases: functional
# Escherichia coli = assay: Antimicrobial activity against Escherichia coli ATCC 25922 by broth microdilution assay
# Streptococcus pyogenes = assay: Antimicrobial activity against Streptococcus pyogenes by broth microdilution assay
# Enterococcus faecalis = assay: Antimicrobial activity against Enterococcus faecalis ATCC 51299 by broth microdilution assay
# Staphylococcus aureus = assay: Antimicrobial activity against methicillin-resistant Staphylococcus aureus ATCC 33591 by broth microdilution assay
# Pseudomonas aeruginosa = assay: Antimicrobial activity against Pseudomonas aeruginosa ATCC 27853 by broth microdilution assay
# Streptococcus agalactiae = assay: Antimicrobial activity against Streptococcus agalactiae COH1 by broth microdilution assay
# [1] = Streptococcus pyogenes, read-out: MIC
SMILES,MIC (Escherichia coli) [µg/mL],MIC (Streptococcus pyogenes; [1]) [µg/mL],MIC (Enterococcus faecalis) [µg/mL],MIC (Staphylococcus aureus) [µg/mL],MIC (Pseudomonas aeruginosa) [µg/mL],MIC (Streptococcus agalactiae) [µg/mL],MIC (Streptococcus pyogenes) [µg/mL]
CC(C)C[C@@H]1NC(=O)[C@H](CCC(N)=O)NC(=O)[C@H](C(C)C)NC(=O)[C@@H]2CCCN2C(=O)[C@@H](Cc2ccc(O)cc2)NC(=O)[C@H](CC(C)C)NC(=O)[C@H](CCC(N)=O)NC(=O)[C@H](C(C)C)NC(=O)[C@@H]2CCCN2C(=O)[C@@H](Cc2ccc(O)cc2)NC1=O,> 100,> 100,> 100,> 100,> 100,> 100,–
CC(C)C[C@@H]1NC(=O)[C@H](CCC(N)=O)NC(=O)[C@H](C(C)C)NC(=O)[C@@H]2CCCN2C(=O)[C@@H](Cc2c[nH]c3ccccc23)NC(=O)[C@H](CC(C)C)NC(=O)[C@H](CCC(N)=O)NC(=O)[C@H](C(C)C)NC(=O)[C@@H]2CCCN2C(=O)[C@@H](Cc2c[nH]c3ccccc23)NC1=O,> 100,> 100,> 100,> 100,> 100,> 100,–
CC(C)C[C@@H]1NC(=O)[C@H](CCC(N)=O)NC(=O)[C@H](C(C)C)NC(=O)[C@@H]2CCCN2C(=O)[C@@H](c2ccccc2)NC(=O)[C@H](CC(C)C)NC(=O)[C@H](CCC(N)=O)NC(=O)[C@H](C(C)C)NC(=O)[C@@H]2CCCN2C(=O)[C@@H](c2ccccc2)NC1=O,> 100,10,> 100,> 100,> 100,> 100,–
CC(C)C[C@@H]1NC(=O)[C@H](CCC(N)=O)NC(=O)[C@H](C(C)C)NC(=O)[C@@H]2CCCN2C(=O)[C@@H](Cc2cccs2)NC(=O)[C@H](CC(C)C)NC(=O)[C@H](CCC(N)=O)NC(=O)[C@H](C(C)C)NC(=O)[C@@H]2CCCN2C(=O)[C@@H](Cc2cccs2)NC1=O,> 100,> 100,> 100,> 100,> 100,> 100,–
CC(C)C[C@@H]1NC(=O)[C@H](CCC(N)=O)NC(=O)[C@H](C(C)C)NC(=O)[C@@H]2CCCN2C(=O)[C@@H](Cc2ccc(F)cc2)NC(=O)[C@H](CC(C)C)NC(=O)[C@H](CCC(N)=O)NC(=O)[C@H](C(C)C)NC(=O)[C@@H]2CCCN2C(=O)[C@@H](Cc2ccc(F)cc2)NC1=O,> 100,10,> 100,> 100,> 100,> 100,–
CC(C)C[C@@H]1NC(=O)[C@H](CCC(N)=O)NC(=O)[C@H](C(C)C)NC(=O)[C@@H]2CCCN2C(=O)[C@@H](Cc2ccc(I)cc2)NC(=O)[C@H](CC(C)C)NC(=O)[C@H](CCC(N)=O)NC(=O)[C@H](C(C)C)NC(=O)[C@@H]2CCCN2C(=O)[C@@H](Cc2ccc(I)cc2)NC1=O,> 100,10,> 100,> 100,> 100,> 100,–
CC(C)C[C@@H]1NC(=O)[C@H](CCC(N)=O)NC(=O)[C@H](CC(C)C)NC(=O)[C@@H]2CCCN2C(=O)[C@H](Cc2ccccc2)NC(=O)[C@H](CC(C)C)NC(=O)[C@H](CCC(N)=O)NC(=O)[C@H](CC(C)C)NC(=O)[C@@H]2CCCN2C(=O)[C@H](Cc2ccccc2)NC1=O (cyclo(FPLQLFPLQL)),> 100,10,> 100,> 100,> 100,> 100,–
CC(C)C[C@@H]1NC(=O)[C@H](CCC(N)=O)NC(=O)[C@H](CC(C)C)NC(=O)[C@@H]2CCCN2C(=O)[C@H](Cc2ccccc2)NC(=O)[C@H](C(C)C)NC(=O)[C@H](CCC(N)=O)NC(=O)[C@H](CC(C)C)NC(=O)[C@@H]2CCCN2C(=O)[C@H](Cc2ccccc2)NC1=O (cyclo(FPLQLFPLQV)),> 100,10,> 100,> 100,> 100,10,–
CC(C)C[C@@H]1NC(=O)[C@H](CCC(N)=O)NC(=O)[C@H](CC(C)C)NC(=O)[C@@H]2CCCN2C(=O)[C@H](Cc2ccccc2)NC(=O)[C@H](C(C)C)NC(=O)[C@H](CCC(N)=O)NC(=O)[C@H](C(C)C)NC(=O)[C@@H]2CCCN2C(=O)[C@H](Cc2ccccc2)NC1=O (cyclo(FPLQLFPVQV)),> 100,10,> 100,> 100,> 100,> 100,–
CC(C)C[C@@H]1NC(=O)[C@H](CCC(N)=O)NC(=O)[C@H](C(C)C)NC(=O)[C@@H]2CCCN2C(=O)[C@H](Cc2ccccc2)NC(=O)[C@H](C(C)C)NC(=O)[C@H](CCC(N)=O)NC(=O)[C@H](CC(C)C)NC(=O)[C@@H]2CCCN2C(=O)[C@H](Cc2ccccc2)NC1=O (cyclo(FPLQVFPVQL)),> 100,10,> 100,> 100,> 100,> 100,–
CC(C)C[C@@H]1NC(=O)[C@H](CCC(N)=O)NC(=O)[C@H](C(C)C)NC(=O)[C@@H]2CCCN2C(=O)[C@H](Cc2ccccc2)NC(=O)[C@H](CC(C)C)NC(=O)[C@H](CCC(N)=O)NC(=O)[C@H](C(C)C)NC(=O)[C@@H]2CCCN2C(=O)[C@H](Cc2ccccc2)NC1=O (cyclo(FPVQLFPVQL)),> 100,10,> 100,> 100,> 100,> 100,–
CC(C)C[C@@H]1NC(=O)[C@H](CCC(N)=O)NC(=O)[C@H](C(C)C)NC(=O)[C@@H]2CCCN2C(=O)[C@H](Cc2ccccc2)NC(=O)[C@H](C(C)C)NC(=O)[C@H](CCC(N)=O)NC(=O)[C@H](C(C)C)NC(=O)[C@@H]2CCCN2C(=O)[C@H](Cc2ccccc2)NC1=O (cyclo(FPVQLFPVQV)),> 100,10,> 100,> 100,> 100,> 100,–
CC(C)[C@@H]1NC(=O)[C@H](CCC(N)=O)NC(=O)[C@H](C(C)C)NC(=O)[C@@H]2CCCN2C(=O)[C@H](Cc2ccccc2)NC(=O)[C@H](C(C)C)NC(=O)[C@H](CCC(N)=O)NC(=O)[C@H](C(C)C)NC(=O)[C@@H]2CCCN2C(=O)[C@H](Cc2ccccc2)NC1=O (cyclo(FPVQVFPVQV)),> 100,> 100,> 100,> 100,> 100,> 100,–
CC(C)C[C@@H]1NC(=O)[C@@H]2CCCN2C(=O)[C@H](Cc2ccccc2)NC(=O)[C@H](C(C)C)NC(=O)[C@H](CCC(N)=O)NC(=O)[C@H](C(C)C)NC(=O)[C@@H]2CCCN2C(=O)[C@H](Cc2ccccc2)NC(=O)[C@H](C(C)C)NC(=O)[C@H](CCC(N)=O)NC1=O (stereo in doubt; form 1),> 100,–,> 100,> 100,> 100,> 100,>100
CC(C)C[C@@H]1NC(=O)[C@@H]2CCCN2C(=O)[C@H](Cc2ccccc2)NC(=O)[C@H](C(C)C)NC(=O)[C@H](CCC(N)=O)NC(=O)[C@H](C(C)C)NC(=O)[C@@H]2CCCN2C(=O)[C@H](Cc2ccccc2)NC(=O)[C@H](C(C)C)NC(=O)[C@H](CCC(N)=O)NC1=O (stereo in doubt; form 2),–,–,–,–,–,–,10

# — ChEMBL document CHEMBL1255543, “On resin amino acid side chain attachment strategy for the head to tail synthesis of new glutamine containing gramicidin-S analogs and their antimicrobial activity” (2010)
